The subject of assay [1] is Mouse macrophages (RAW 264.7). As to the kind of experiment: In vitro cytokine measurement (real time PCR of transcripts) in macrophages. It counts as cell-based. How it is done: Cell growth media consisted of Dulbecco's modified Eagle's medium supplemented with 10% heat-inactivated fetal bovine serum (Sigma, St. Louis, Mo., U.S.A.) and 1× penicillin-streptomycin (Gibco, Carlsbad, Calif., U.S.A.). Cells were maintained in a humidified atmosphere of 95% air and 5% CO2. Total RNA was isolated using the RNeasy Mini Kit (Qiagen, Valencia, Calif., U.S.A.). RNA was then treated with 2 units of DNase I (Ambion, Austin, Tex., U.S.A.) at 37° C. for 30 min. Reverse transcription was performed according to the manufacturer's instructions. Briefly, the reverse transcription reaction mixture consisted of 1 μg DNase 1-treated RNA, 500 ng oligo-[…], 10 mM dNTP, 40 units RNasin (Promega, Madison, Wis., U.S.A.), and 200 units of reverse transcriptase SUPERSCRIPT IIITM (Invitrogen, Carlsbad, Calif., U.S.A.). cDNA synthesis was carried out at 50° C. for 1 hr followed by inactivation of reverse transcriptase at 70° C. for 15 min. […] Cell maintenance and 3T3-L1 preadipocyte differentiation is described herein below. For pharmacological experiments, cells were seeded at a density of 5×10^5 cells/well in a 12-well plate (Corning). Total RNA was isolated and reverse transcribed as described in the supplementary materials. […] TNFα, IL-1β, and IL-6 transcript levels were normalized to Glyceraldehyde-3-phosphate dehydrogenase (GAPDH).

In another assay the test system is 3T3-L1 adipocytes. The assay is described as follows: In vitro cytokine measurement (real time PCR of transcripts) in adipocytes. It counts as cell-based, mouse. On the procedure:
Cell growth media consisted of Dulbecco's modified Eagle's medium supplemented with 10% heat-inactivated fetal bovine serum (Sigma, St. Louis, Mo., U.S.A.) and 1× penicillin-streptomycin (Gibco, Carlsbad, Calif., U.S.A.). Cells were maintained in a humidified atmosphere of 95% air and 5% CO2.
Two days after reaching confluence in growth media, adipogenesis was induced by incubating cells in growth media containing 0.25 μM dexamethasone (Sigma), 0.5 mM IBMX (Sigma), and 1 μM insulin (Sigma). After an additional 2 days in growth media containing 1 μM insulin, cells were grown for 6-8 days in normal growth media.
Total RNA was isolated using the RNeasy Mini Kit (Qiagen, Valencia, Calif., U.S.A.). RNA was then treated with 2 units of DNase I (Ambion, Austin, Tex., U.S.A.) at 37° C. for 30 min. Reverse transcription was performed according to the manufacturer's instructions. Briefly, the reverse transcription reaction mixture consisted of 1 μg DNase 1-treated RNA, 500 ng oligo-dT12-18, 10 mM dNTP, 40 units RNasin (Promega, Madison, Wis., U.S.A.), and 200 units of reverse transcriptase SUPERSCRIPT III™ (Invitrogen, Carlsbad, Calif., U.S.A.). cDNA synthesis was carried out at 50° C. for 1 hr followed by inactivation of reverse transcriptase at 70° C. for 15 min.
Mouse macrophages (RAW 264.7) and […] preadipocytes (3T3-L1) were obtained from the University of North Carolina Tissue Culture Facility. Cell maintenance and 3T3-L1 preadipocyte differentiation is described herein below. For pharmacological experiments, cells were seeded at a density of 5×10^5 cells/well in a 12-well plate (Corning). Total RNA was isolated and reverse transcribed as described in the supplementary materials. TNFα, IL-1β, and IL-6 transcripts were quantitated in quadruplicate by real time polymerase chain reaction using TAQMAN® Gene Expression Assays (Applied Biosystems, Foster City, Calif., U.S.A.) in an ABI PRISM 7000 Sequence Detection System. TNFα, IL-1β, and IL-6 transcript levels were normalized to Glyceraldehyde-3-phosphate dehydrogenase (GAPDH).

A further assay concerns Sprague-Dawley rats. The assay is described as follows: Mechanical and thermal pain behavior testing (von Frey monofilaments, radiant heat). Conditions: for blockade of OR486-induced hyperalgesia / heightened pain sensitivity: antagonist i.p. prior to OR486; for paw withdrawal latency to radiant heat after OR486, selective βAR antagonists: i.p. 10 min prior to OR486, ICI118,551 5.0 mg/kg; for paw withdrawal latency to radiant heat after OR486, selective βAR antagonists / paw withdrawal frequency to mechanical stimuli after OR486, selective βAR antagonists / paw withdrawal threshold to mechanical stimuli after OR486, selective βAR antagonists: SR59230A 5 or 50 mg/kg, betaxolol 0.1, 1.0, 10 mg/kg, relative to vehicle prior to OR486; for paw withdrawal frequency to mechanical stimuli after OR486, selective βAR antagonists / paw withdrawal threshold to mechanical stimuli after OR486, selective βAR antagonists: i.p. 10 min prior to OR486, ICI118,551 0.5 or 5.0 mg/kg; for paw withdrawal frequency to mechanical stimuli, antagonist in the absence of OR486 / paw withdrawal latency to radiant heat, antagonist in the absence of OR486 / paw withdrawal threshold to mechanical stimuli, antagonist in the absence of OR486: i.p. 10 min prior to vehicle, phentolamine 3, propranolol 3, SCH23390 0.2, spiperone 0.2, betaxolol 1.0, ICI118,551 0.5, SR59230A 5 mg/kg, relative to vehicle. It counts as in vivo, rat. How it is done:
Rats were placed in plexiglass cages positioned over an elevated perforated stainless steel platform and habituated to the environment for 15-25 min prior to testing. Paw withdrawal threshold to punctate mechanical stimulation was assessed using the up-down method of Chaplan et al. (1994). A series of nine calibrated filaments (with bending forces of 0.40, 0.68, 1.1, 2.1, 3.4, 5.7, 8.4, 13.2, and 25.0 g; Sammons Preston Rolyan, Bolingbrook, Ill., U.S.A.) with approximately equal logarithmic spacing between stimuli (Mean±SEM: 0.232±0.04 units) were presented to the hind paw in successive order, whether ascending or descending. Filaments were positioned in contact with the hind paw for a duration of 3 s or until a withdrawal response occurred. Testing was initiated with the middle hair of the series (3.4 g). In the absence of a paw withdrawal response, an incrementally stronger filament was presented and in the event of a paw withdrawal, an incrementally weaker filament was presented. After the initial response threshold was crossed, this procedure was repeated four times in order to obtain a total of six responses in the immediate vicinity of the threshold. The presence of paw withdrawal (X) and absence of withdrawal (O) was noted together with the terminal filament used in the series of six responses. The 50% g threshold=(10^[Xf+kδ])/10,000, where Xf=value (in log units) of the final von Frey hair used; k=tabular value of pattern of positive (X) and negative (O) responses, and δ=mean difference (in log units) between stimuli.
Immediately following determination of the response threshold, paw withdrawal frequency (%) to punctate mechanical stimulation was assessed. A von Frey monofilament with a calibrated bending force of 25 g was presented to the hind paw 10 times for a duration of 1 s with an interstimulus interval of approximately 1 s. Mechanical hyperalgesia was defined as an increase in the percentage frequency ([# of paw withdrawals/10]×100) of paw withdrawal evoked by stimulation with von Frey monofilaments.
Thermal hyperalgesia was evaluated using the radiant heat method of Hargreaves et al. (1988) in the same animals evaluated for responsiveness to von Frey monofilaments. Radiant heat was presented through the floor of a finely perforated stainless steel platform to the midplantar region of the hind paw.
After establishing stable baseline responsiveness to mechanical and thermal stimuli, separate groups of rats received intraperitoneal injections of OR486 (30 mg/kg i.p.; N=8) or vehicle (N=8) one hour prior to behavioral testing. Responsiveness to von Frey filaments was reassessed at 30 min intervals for 2 hours. Paw withdrawal latencies to radiant heat were subsequently assessed at 2.5 hours into the testing procedure. Twenty-four hours later, baseline responsiveness to mechanical and thermal stimuli was reestablished. Animals received OR486 (30 mg/kg i.p.) or vehicle (consistent with the previous day). Thirty minutes following administration of drug or vehicle, separate groups of rats received intraplantar carrageenan (N=4 per group) or saline (N=4 per group). Responsiveness to von Frey filaments was reassessed at 30 min intervals for 2 hours following the induction of inflammation. Paw withdrawal latencies to radiant heat were subsequently assessed at 2.5 hours post carrageenan.
Rats were handled and habituated to the testing environment 2-3 days prior to establishing baseline responsiveness. On test days, rats were placed in plexiglass cages positioned over an elevated perforated stainless steel platform and habituated to the environment for 15-20 minutes prior to testing. Paw withdrawal threshold to punctate mechanical stimulation was assessed using the up-down method of Chaplan (Chaplan et al. (1994)). […]

Another assay relates to TNFα, IL-1β, and IL-6. As to the kind of experiment: In vivo plasma cytokine measurement (ELISA). On the set-up: species or system rat. Conditions: rats; ICI118,551 or SR59230A prior to OR486, low, middle and high dose pooled; relative to vehicle prior to OR486. On the procedure: Blood was centrifuged and plasma separated from red blood cells. Plasma IL-6 was measured in duplicate using enzyme-linked immunosorbant assay (ELISA) kits from R&D systems (Minneapolis, Minn., U.S.A.). Plasma TNFα and IL-1β were measured in duplicate by the University of North Carolina Proteomics Ilmmunotechnologies Core using ELISA kits from Biosource (Camarillo, Calif., U.S.A.) and the National Institute for Biological Standards and Control (UK), respectively.
On the technique in general: ELISA stands for enzyme-linked immunosorbent assay.

Setting [2] is: salmeterol 0.5 μM, 1 hr treatment, normalized to GAPDH.
Setting [3] is: pretreatment 30 min: betaxolol 0.3 μM, ICI118,551 0.3 μM, SR59230A 0.1 μM, then salmeterol 0.5 μM 1 hr.

Consider `OCc1cc(C(O)CNCCCCCCOCCCCc2ccccc2)ccc1O` (stereo not drawn) [salmeterol], for which, in assay [1] (setting [2]), the “increase in IL-1β mRNA levels in macrophages” value is reported as 38 fold and the “increase in IL-6 mRNA levels in macrophages” value is recorded as 6.5 fold. Moreover, the “increase in IL-6 mRNA levels in adipocytes” value with 3T3-L1 adipocytes (salmeterol 0.5 μM or CL316243 0.3 μM, 1 hr treatment, normalized to GAPDH) came out at 8 fold. In addition, the “increase in TNFα mRNA levels in adipocytes” value with 3T3-L1 adipocytes (setting [2]) stood at 6 fold.

Take `CCc1ccccc1OC[C@@H](O)CN[C@H]1CCCc2ccccc21` [SR59230A, (1-(2-ethylphenoxy)-3-[[(1S)-1,2,3,4-tetrahydro-1-naphthalenyl]amino]-(2S)-2-propanol)]: in the assay with Sprague-Dawley rats, the “blockade of OR486-induced hyperalgesia / heightened pain sensitivity” value is “partially blocked”; the “paw withdrawal latency to radiant heat after OR486, selective βAR antagonists” value is listed as “increased paw withdrawal latency”; the “paw withdrawal frequency to mechanical stimuli after OR486, selective βAR antagonists” value is listed as “decreased paw withdrawal frequency”; the “paw withdrawal threshold to mechanical stimuli after OR486, selective βAR antagonists” value is “increased paw withdrawal threshold”. Further, in the assay on Sprague-Dawley rats, the “paw withdrawal frequency to mechanical stimuli, antagonist in the absence of OR486” value was “failed to affect”; the “paw withdrawal latency to radiant heat, antagonist in the absence of OR486” value was “failed to affect”; the “paw withdrawal threshold to mechanical stimuli, antagonist in the absence of OR486” value was “failed to affect”. In the assay with TNFα, IL-1β, and IL-6, the “levels of IL-1β after OR486, selective β2 or β3 antagonist” value was “decreased levels”; the “levels of IL-6 after OR486, selective β2 or β3 antagonist” value is given as “decreased levels”; the “levels of TNFα after OR486, selective β2 or β3 antagonist” value is “decreased levels”. Also, the “blockade of CL316243-induced increase in adipocyte IL-6 transcript levels” value in the assay on 3T3-L1 adipocytes (pretreatment 30 min: betaxolol 0.3 μM, ICI118,551 0.3 μM, SR59230A 0.1 μM, then CL316243 0.3 μM 1 hr) is given as “completely blocked”.

On to `Cc1ccc(OCC(O)C(C)NC(C)C)c2c1CCC2` (single isomer, unassigned; (-)) [ICI118,551, (−)-1-(2,3-[dihydro-7-methyl-1H-inden-4-yl]oxy)-3-([1-methylethyl]-amino)-2-butanol], for which, in the assay on Sprague-Dawley rats, the “blockade of OR486-induced hyperalgesia / heightened pain sensitivity” value was “partially blocked”; the “paw withdrawal latency to radiant heat after OR486, selective βAR antagonists” value was “increased paw withdrawal latency”; the “paw withdrawal frequency to mechanical stimuli after OR486, selective βAR antagonists” value is listed as “decreased paw withdrawal frequency”; the “paw withdrawal threshold to mechanical stimuli after OR486, selective βAR antagonists” value is “increased paw withdrawal threshold”. In addition, in the assay on Sprague-Dawley rats, the “paw withdrawal frequency to mechanical stimuli, antagonist in the absence of OR486” value is recorded as “failed to affect”; the “paw withdrawal latency to radiant heat, antagonist in the absence of OR486” value is “failed to affect”; the “paw withdrawal threshold to mechanical stimuli, antagonist in the absence of OR486” value is on record as “failed to affect”. Also, in the assay on TNFα, IL-1β, and IL-6, the “levels of IL-1β after OR486, selective β2 or β3 antagonist” value is reported as “decreased levels”; the “levels of IL-6 after OR486, selective β2 or β3 antagonist” value is reported as “decreased levels”; the “levels of TNFα after OR486, selective β2 or β3 antagonist” value is given as “decreased levels”. In assay [1] (setting [3]), the “blockade of salmeterol-induced increase in macrophage IL-1β and IL-6 transcript levels” value is “completely blocked”. Further, in the assay on 3T3-L1 adipocytes (setting [3]), the “blockade of salmeterol-induced increase in adipocyte TNFα and IL-6 transcript levels” value is “completely blocked”.

(Values after patent publication US11085081B2, “Methods and materials for determining pain sensitivity and predicting and treating related disorders” (The University of North Carolina at Chapel Hill, priority 2004, dated 2021).)
